Measured values from paper PMC7345095, “New Synthetic Nitro-Pyrrolomycins as Promising Antibacterial and Anticancer Agents” (Antibiotics, 2020).
≈ marks a conversion by molar mass, not a printed value. Read-outs that look alike come from different tables or passages of the source.

Key:
[1] = tested on: hTERT RPE-1 immortalized retinal pigment epithelial cell line; test: MTT viability assay (cytotoxicity on normal cells); format: cell-based; conditions: hTERT-RPE1; MTT, 48 h of treatment, normal epithelial cells; read-out: IC50 hTERT-RPE-1
Experimental: (§1) The HCT116 colon cancer cell line (ATCC® CCL-247™), the MCF 7 breast cancer cell line (ATCC® HTB-22™) and the hTERT RPE-1 -immortalized retinal pigment epithelial cell line (ATCC® CRL-4000™) used in this study were cultured in DMEM medium (Gibco, Paisley, UK), supplemented with 1% glutamine, 10% heat-inactivated fetal bovine serum and 100U/mL penicillin and 100 μg/mL streptomycin, as already described, and maintained at 37 °C and 5% CO2.
(§2) Cells were plated at 5 × 10^3 cells/well in 96-well plates and incubated for 24 h prior to treatment for further 48 h of different concentrations of PMs. After incubation, a sample of 20 μL of Thiazolyl Blue Tetrazolium Bromide (5 mg mL^−1) in PBS was added to each well and cultured for 2h at 37 °C in CO2 incubator. After removing the medium containing MTT and three washes with PBS, 100 μL of warm DMSO was added to each well to dissolve formazan. Samples were shaken for 10 min, at room temperature in the dark, and the absorbance was recorded at 570 nm using a microplate reader (Spark® 20M Tecan Trading AG, Switzerland). Percentage of cell viability with respect to untreated control cells (vehicle control) was calculated after subtraction of the blank. The IC50 values, that is the concentration necessary to inhibit the 50% of cell growth, was calculated using a dose-response model, obtained from sigmoidal fitting of response curves of percent inhibition versus logarithmic concentration of PMs, using Graph Pad Prism software. Each result represents the mean value of three different experiments performed in triplicate.

[2] = tested on: Pseudomonas aeruginosa ATCC 10145; test: Kill curve assay (MBC), planktonic cells; format: cell-based; conditions: for MBC: Pseudomonas aeruginosa, ATCC10145, minimal bactericidal concentration, planktonic cells, 24 h challenge, LB medium, read-out: MBC P. aeruginosa; for log reduction in the number of viable CFUs, P. aeruginosa: highest concentration tested 100 μM, 24 h; for B-SI (Bacterial Selectivity Index), P. aeruginosa: ratio of IC50 of normal hTERT-RPE-1 to MBC of P. aeruginosa, first value of the cell
Experimental: (§3) Kill curve assays were performed to test the antimicrobial efficacy of pyrrolomycins (i.e., 1, 2, 5a, 5b, 5c, 5d), as well as that of the natural PM-C against the indicator pathogen Staphylococcus aureus ATCC 25923 and Pseudomonas aeruginosa ATCC 10145 strains. Briefly, a single colony of either S. aureus or P. aeruginosa strains was picked up and pre-cultivated (ca. 16 h) at 37 °C with shacking (160 rpm) in Luria Bertani medium (hereinafter named as LB and composed of (g L^−1): sodium chloride, 10; yeast extract, 5; tryptone, 10). The same medium was solidified by adding 15 g L^−1 of bacteriological agar when needed. Bacterial cells were then inoculated (1% v/v) in LB medium amended with increasing concentrations—ranging from 0 to 100 μM as initial concentration—of each pyrrolomycin tested, challenging the cultures for 24 h and incubating them as reported above. The actual number of viable colony forming units per milliliter of culture (CFU mL^−1) of each bacterial strain, who survived the challenge exerted by pyrrolomycins, was evaluated through the spot plate count method and compared to unchallenged cultures, as reported elsewhere. The data are reported as average values (n = 3) of CFU mL^−1 in the logarithmic (Log10) scale with standard deviation (SD). Evaluation of the MIC of PM-5c, and -5d against S. aureus and of PM-5d against P. aeruginosa was performed by incubating 1% (v/v) of an overnight bacterial suspension in LB medium in presence of increasing concentrations of the PMs. As a control, MIC of PM-C was measured. At the time of the inoculum and after overnight challenge, the absorbance of the cultures at 600 nm, which is an indirect way to measure the bacterial cell growth, was registered using a Spark™ 10 M multimode microplate reader measuring. The experiment was carried out in triplicate, being the absorbance corrected by subtracting that of the culture medium amended with the corresponding PM tested.

[3] = tested on: Staphylococcus aureus ATCC 25923; test: Kill curve assay (MBC), planktonic cells; format: cell-based; conditions: for MBC: minimal bactericidal concentration, planktonic cells, 24 h challenge, LB medium, read-out: MBC S. aureus; for B-SI (Bacterial Selectivity Index), S. aureus: ratio of IC50 of normal hTERT-RPE-1 to MBC of S. aureus, second value of the cell
Experimental: as §3

[4] = tested on: HCT116 and MCF 7 cancer cell lines; test: MTT viability assay, statements over both cancer cell lines; format: cell-based; conditions: for IC50: MTT, 48 h challenge, group statement, read-out: IC50, regardless of the cancer cell line (HCT116, MCF 7); for C-SI, mean value among the two cancer cell lines: mean of HCT116 and MCF 7 C-SI
Experimental: as §1, §2

[5] = tested on: HCT116 colon cancer cell line; test: MTT viability assay; format: cell-based; conditions: for IC50: MTT, 48 h of treatment; for C-SI (Cancer Selectivity Index), HCT116: ratio of IC50 of normal hTERT-RPE-1 to that of HCT116, first value of the cell
Experimental: as §1, §2

[6] = tested on: MCF 7 breast cancer cell line; test: MTT viability assay; format: cell-based; conditions: for IC50: MTT, 48 h of treatment; for C-SI (Cancer Selectivity Index), MCF 7: ratio of IC50 of normal hTERT-RPE-1 to that of MCF 7, second value of the cell
Experimental: as §1, §2

Escherichia coli = tested on: Escherichia coli; set-up: method as in PMID 31405863, PMID 15730262; conditions: natural PMs; cited from earlier work
HCT116 cells [7] = test: Morphological assessment, phase contrast inverted microscope; format: cell-based; conditions: 0.1 µM (sub-inhibitory), 24 h
Experimental: HCT116 cells were seeded in 24 well culture plates with a cell density of 1 × 10^5 cells/well. After 24 h cells were incubated for 24 h with different concentration of the selected PMs, and observed under a phase contrast inverted microscope (Carl Zeiss) at 200× magnification, for morphological changes assessment.

HCT116 cells [8] = test: Acridine orange/ethidium bromide (AO/EB) staining; format: cell-based; conditions: treated at IC50 for 24 and 48 h
Excerpt: Cells were immediately observed under a fluorescent microscopy (Carl Zeiss) at 630 × magnification.

S. aureus = test: MIC by absorbance at 600 nm after overnight challenge; format: cell-based; conditions: Staphylococcus aureus, LB medium, absorbance 600 nm
Experimental: as §3

[9] = Staphylococcus aureus, ATCC25923

O=C(c1cc(Cl)c([N+](=O)[O-])[nH]1)c1cc(Cl)cc(Cl)c1O [PM 5b, (4-Chloro-5-nitro-1H-pyrrol-2-yl)(3,5-dichloro-2-hydroxyphenyl)methanone]
IC50 [1]: 55.4 ± 13.2 µM | MBC [2]: > 100 µM | log reduction in the number of viable CFUs, P. aeruginosa [2]: 2.7 log | B-SI (Bacterial Selectivity Index), P. aeruginosa [2]: > 0.6 | MBC [3, 9]: 20 µM (≈ 6.71 µg/mL) | MBC [3]: 20 µM (≈ 6.71 µg/mL) | B-SI (Bacterial Selectivity Index), S. aureus [3]: 2.8 | melting point: 180 to 182 °C | IC50 [4]: > 7 µM | C-SI, mean value among the two cancer cell lines [4]: 2.5 | IC50 ([5]; Homo sapiens, HCT-116, 48 h): 18.7 ± 3.81 µM | IC50 [5]: 18.7 ± 3.8 µM | C-SI (Cancer Selectivity Index), HCT116 [5]: 3 | IC50 ([6]; Homo sapiens, MCF7, 48 h): 28.8 ± 4.21 µM | IC50 [6]: 28.8 ± 4.2 µM | C-SI (Cancer Selectivity Index), MCF 7 [6]: 1.9

COc1c(Cl)cc(Cl)cc1C(=O)c1cc(Cl)c(Cl)[nH]1 [PM-I]
MIC against Escherichia coli (Escherichia coli): more than 300 μM

COc1c(Cl)cc(Cl)cc1C(=O)c1[nH]c(Cl)c(Cl)c1Cl [PM-J]
MIC against Escherichia coli (Escherichia coli): more than 300 μM

O=C(c1cc(Br)cc(Br)c1O)c1[nH]c(Br)c(Br)c1Br [PM 1, 3,4,5,3′,5′-Pentabromo-2-(2′-hydroxybenzoyl)pyrrole, reference compound]
morphology of treated HCT116 cells (HCT116 cells [7]): more fibroblastic and less clumped morphology | IC50 [1]: 57.7 ± 11.2 µM | MBC [2]: > 100 µM | log reduction in the number of viable CFUs, P. aeruginosa [2]: 2.2 log | B-SI (Bacterial Selectivity Index), P. aeruginosa [2]: > 0.6 | MBC [3, 9]: 5 µM (≈ 2.91 µg/mL) | B-SI (Bacterial Selectivity Index), S. aureus [3]: 11.5 | AO/EB fluorescence of treated HCT116 cells (type of cell death) (HCT116 cells [8]): red fluorescence | IC50 [4]: 0.8 to 2.25 µM | C-SI, mean value among the two cancer cell lines [4]: 46 | IC50 ([5]; Homo sapiens, HCT-116, 48 h): 1.3 ± 0.3 µM | C-SI (Cancer Selectivity Index), HCT116 [5]: 44.2 | IC50 ([6]; Homo sapiens, MCF7, 48 h): 1.22 ± 0.69 µM | IC50 [6]: 1.2 ± 0.7 µM | C-SI (Cancer Selectivity Index), MCF 7 [6]: 47.3

COc1c(Br)cc(Br)cc1C(=O)c1c(Br)c(Br)c(Br)n1C [PM 2, (3,5-Dibromo-2-methoxyphenyl)(3,4,5-tribromo-1-methyl-1H-pyrrol-2-yl)methanone]
IC50 [1]: 149 ± 41 µM | MBC [2]: > 100 µM | B-SI (Bacterial Selectivity Index), P. aeruginosa [2]: > 1.5 | MBC [3, 9]: 70 µM (≈ 42.7 µg/mL) | B-SI (Bacterial Selectivity Index), S. aureus [3]: 2.1 | melting point: 179 to 180 °C | IC50 [4]: > 7 µM | C-SI, mean value among the two cancer cell lines [4]: 11 | IC50 ([5]; Homo sapiens, HCT-116, 48 h): 11.1 ± 3.26 µM | IC50 [5]: 11.1 ± 3.3 µM | C-SI (Cancer Selectivity Index), HCT116 [5]: 13.4 | IC50 ([6]; Homo sapiens, MCF7, 48 h): 17.2 ± 3.2 µM | IC50 [6]: 17.2 ± 3.2 µM | C-SI (Cancer Selectivity Index), MCF 7 [6]: 8.6

O=C(c1cc([N+](=O)[O-])c[nH]1)c1cc(Cl)cc(Cl)c1O [PM 5a, (3,5-Dichloro-2-hydroxyphenyl)(4-nitro-1H-pyrrol-2-yl)methanone]
morphology of treated HCT116 cells (HCT116 cells [7]): more fibroblastic and less clumped morphology | IC50 [1]: 65.8 ± 10.5 µM | MBC [2]: > 100 µM | B-SI (Bacterial Selectivity Index), P. aeruginosa [2]: > 0.7 | MBC [3, 9]: 60 µM (≈ 18.1 µg/mL) | MBC [3]: 60 µM (≈ 18.1 µg/mL) | B-SI (Bacterial Selectivity Index), S. aureus [3]: 1.1 | AO/EB fluorescence of treated HCT116 cells (type of cell death) (HCT116 cells [8]): orange fluorescence | IC50 [4]: 0.8 to 2.25 µM | C-SI, mean value among the two cancer cell lines [4]: 32 | IC50 ([5]; Homo sapiens, HCT-116, 48 h): 1.9 ± 0.42 µM | C-SI (Cancer Selectivity Index), HCT116 [5]: 34.6 | IC50 ([6]; Homo sapiens, MCF7, 48 h): 2.25 ± 0.35 µM | IC50 [6]: 2.2 ± 0.3 µM | C-SI (Cancer Selectivity Index), MCF 7 [6]: 29.2

COc1c(Cl)cc(Cl)cc1[C@H](O)c1[nH]c(Cl)c(Cl)c1[N+](=O)[O-] [PM-H]
MIC against Escherichia coli (Escherichia coli): more than 300 μM

O=C(c1cc(Br)c([N+](=O)[O-])[nH]1)c1cc(Cl)cc(Cl)c1O [PM 5c, (4-Bromo-5-nitro-1H-pyrrol-2-yl)(3,5-dichloro-2-hydroxyphenyl)methanone]
IC50 [1]: 29.7 ± 5.7 µM | MBC [2]: > 100 µM | log reduction in the number of viable CFUs, P. aeruginosa [2]: 2.2 log | B-SI (Bacterial Selectivity Index), P. aeruginosa [2]: > 0.3 | MBC [3, 9]: 1 µM (≈ 0.38 µg/mL) | fold more active than the synthetic PM-1 (S. aureus) ([3]; fold versus PM-1): 5 | times more active than PM-C (S. aureus MBC) ([3]; fold versus PM-C): 90 | times less toxic than PM-C (bacterial SI) ([3]; from bacterial selectivity index, S. aureus): 30 | MBC [3]: 1 µM (≈ 0.38 µg/mL) | B-SI (Bacterial Selectivity Index), S. aureus [3]: 29.7 | melting point: 175 to 177 °C | IC50 [4]: > 7 µM | C-SI, mean value among the two cancer cell lines [4]: 8 | IC50 ([5]; Homo sapiens, HCT-116, 48 h): 7.64 ± 1.88 µM | IC50 [5]: 7.6 ± 1.9 µM | IC50 ([6]; Homo sapiens, MCF7, 48 h): 12 ± 2.85 µM | IC50 [6]: 12 ± 2.8 µM | MIC (S. aureus): 0.5 µM (≈ 0.19 µg/mL)

O=[N+]([O-])c1c([C@@H](O)c2cc(Cl)cc(Cl)c2O)[nH]c(Cl)c1Cl [PM-G]
MIC against Escherichia coli (Escherichia coli): more than 300 μM
